# Tests used:
# arteria saphena = assay: Vasorelaxant action in vitro (phenylephrin-contracted artery rings); parameters: species or system Rabbits; details: Oryctolagus cuniculus; rabbit arteria saphena rings, contraction induced by phenylephrin; read-out: IC50 (concentration reducing the phenylephrin-induced contraction by 50%)
# Procedure: Vaso Relaxant Action in Vitro
# Rabbits are anaesthetized by intravenous injection of thiopental sodium […] (about 50 mg/kg) and exsanguinated. The arteria saphena is removed and divided into 3 mm wide rings. The rings are individually mounted on in each case one triangular pair of hooks, open at the end, made of 0.3 mm strong special wire (Remanium®). Under a pretension, each ring is transferred into 5 ml organ baths containing a warm, carbogen-aerated Krebs-Henseleit solution at 37° C. having the following composition (mM): NaCl: 119; KCl: 4.8; CaCl2×2H2O: 1; MgSO4×7H2O: 1.4; KH2PO4: 1.2; NaHCO3: 25; glucose: 10; bovine serum albumin: 0.001%. The contractility is detected using Statham UC2 cells, amplified and digitalized by means of A/D converters (DAS-1802 HC, Keithley Instruments Munich), and recorded in parallel on linear recorders. Contractions are induced by addition of phenylephrin.
# After several (in general 4) control cycles, the substance to be investigated is added in each further passage in increasing dosage, and the height of the contraction achieved under the influence of the test substance is compared with the height of the contraction achieved in the last preliminary passage. From this, the concentration which is necessary in order to reduce the contraction achieved in the preliminary control by 50% (IC50) is calculated. The standard administration volume is 5 μl. The proportion of DMSO in the bath solution corresponds to 0.1%.
# Heme-containing sGC = target: T1, Heme-containing sGC (Rattus norvegicus, UniProt P20595); assay: Stimulation of recombinant soluble guanylate cyclase (sGC) in vitro, heme-containing enzyme; assay type: biochemical
# T1 construct: made in house; host or cells: baculovirus/Sf9 insect cells
# T1 sequence (P20595 1-619): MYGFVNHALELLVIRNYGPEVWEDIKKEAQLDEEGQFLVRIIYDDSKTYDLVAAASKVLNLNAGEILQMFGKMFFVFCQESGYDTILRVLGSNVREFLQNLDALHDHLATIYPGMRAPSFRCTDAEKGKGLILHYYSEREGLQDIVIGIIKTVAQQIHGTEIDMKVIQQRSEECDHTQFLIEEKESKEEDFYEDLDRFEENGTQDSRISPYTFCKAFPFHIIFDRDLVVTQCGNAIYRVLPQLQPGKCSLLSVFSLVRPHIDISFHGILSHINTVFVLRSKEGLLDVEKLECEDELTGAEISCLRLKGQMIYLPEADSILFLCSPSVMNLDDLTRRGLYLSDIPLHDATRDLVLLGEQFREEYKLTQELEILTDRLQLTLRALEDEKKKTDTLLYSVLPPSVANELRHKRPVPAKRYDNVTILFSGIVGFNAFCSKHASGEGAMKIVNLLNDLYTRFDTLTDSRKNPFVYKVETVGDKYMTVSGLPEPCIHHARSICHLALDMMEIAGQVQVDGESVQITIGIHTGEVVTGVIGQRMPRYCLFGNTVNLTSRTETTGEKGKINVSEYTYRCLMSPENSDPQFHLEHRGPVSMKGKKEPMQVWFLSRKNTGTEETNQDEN
# T1 sequence (P19686 1-690 partner): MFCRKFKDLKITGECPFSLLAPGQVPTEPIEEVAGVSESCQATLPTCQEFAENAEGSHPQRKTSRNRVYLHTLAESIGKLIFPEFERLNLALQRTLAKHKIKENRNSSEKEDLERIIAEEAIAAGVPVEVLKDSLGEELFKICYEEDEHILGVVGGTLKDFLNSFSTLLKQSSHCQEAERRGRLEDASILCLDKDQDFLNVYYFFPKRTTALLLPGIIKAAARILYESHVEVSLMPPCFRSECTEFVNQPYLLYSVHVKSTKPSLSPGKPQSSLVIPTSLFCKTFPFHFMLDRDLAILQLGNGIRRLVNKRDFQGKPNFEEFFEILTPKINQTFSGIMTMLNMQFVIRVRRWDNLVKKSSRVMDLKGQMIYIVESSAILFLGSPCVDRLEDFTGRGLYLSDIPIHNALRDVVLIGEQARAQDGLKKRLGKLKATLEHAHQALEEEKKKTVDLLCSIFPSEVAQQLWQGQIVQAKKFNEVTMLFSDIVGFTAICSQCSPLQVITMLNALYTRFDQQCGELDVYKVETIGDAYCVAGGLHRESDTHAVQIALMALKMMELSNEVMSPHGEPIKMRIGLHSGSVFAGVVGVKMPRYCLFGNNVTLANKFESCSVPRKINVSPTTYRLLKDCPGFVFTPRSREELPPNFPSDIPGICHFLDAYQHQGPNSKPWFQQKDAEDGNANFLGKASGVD
# Procedure: (§1) Stimulation of Recombinant Soluble […] Cyclase (sGC) in Vitro
# (§2) The investigation on the stimulation of recombinant soluble guanylate cyclase (sGC) and the compounds according to the invention with and without sodium nitroprusside and with and without the heme-dependent sGC inhibitor 1H-1,2,4-oxadiazole-(4,3a)-quinoxalin-1-one (ODQ) were carried out by the method described in detail in the following literature reference: M. Hoenicka, E. M. Becker, H. Apeler, T. Sirichoke, H. Schroeder. R Gerzer and J.-P. Stasch: Purified soluble guanylyl cyclase expressed in baculovirus/Sf9 system: stimulation by YC-1, nitric oxide, and carbon oxide. J. Mol, Med. 77 (1999): 14-23.
# (§3) Activation of sGC by a test substance is stated as n-fold stimulation of basal activity.
# Heme-free sGC = target: T2, Heme-free sGC (Rattus norvegicus, UniProt P20595); assay: Stimulation of recombinant soluble guanylate cyclase (sGC) in vitro, heme-free enzyme; assay type: biochemical
# T2 construct: made in house; host or cells: baculovirus/Sf9 insect cells
# T2 sequence (P20595 1-619): T1 sequence (P20595 1-619)
# T2 sequence (P19686 1-690 partner): T1 sequence (P19686 1-690 partner)
# Procedure: as §1, §2
# Heme-free guanylate cyclase was obtained by adding Tween 20 to the sample buffer (final concentration 0.5%).
# as §3
smiles,measurement,setting,value
O=C(O)CCCCC(CCc1ccccc1CCc1ccccc1)Cc1ccc(C(=O)O)cc1 (centres unmarked) [Example 40],IC50,arteria saphena,41 nM
CC(C)(C)c1ccc(COc2ccccc2/C=C/C(CCCCC(=O)O)Cc2ccc(C(=O)O)cc2)cc1 (centres unmarked) [Example 34],IC50,arteria saphena,0.35 nM
N#Cc1ccc(CC(/C=C/c2ccccc2OCCCCCc2ccccc2)CCCCC(=O)O)cc1 (centres unmarked) [Example 13],IC50,arteria saphena,2600 nM
O=C(O)CCCCC(CCc1ccccc1OCCCCCc1ccccc1)Cc1ccc(C(=O)O)cc1 (centres unmarked) [Example 41],IC50,arteria saphena,2.8 nM
CCc1ccc(COc2ccccc2/C=C/C(CCCCC(=O)O)Cc2ccc(C(=O)O)cc2)cc1 (centres unmarked) [Example 35],IC50,arteria saphena,1.7 nM
O=C(O)CCCCC(/C=C/c1ccccc1OCCCOc1ccccc1)Cc1ccc(C(=O)O)cc1 (centres unmarked) [Example 24],IC50,arteria saphena,6200 nM
Cc1ccc(/C=C/C(CCCCC(=O)O)Cc2ccc(C(=O)O)cc2)c(OCc2ccccc2)c1 (centres unmarked) [Example 12],IC50,arteria saphena,112 nM
O=C(O)CCCCC(/C=C/c1ccccc1CCc1ccccc1)Cc1ccc(C(=O)O)cc1 (centres unmarked) [Example 23],IC50,arteria saphena,26 nM
O=C(O)CCCCC(/C=C/c1ccccc1OCCCCCc1ccccc1)Cc1ccccc1C(=O)O (centres unmarked) [Example 60],IC50,arteria saphena,608 nM
O=C(O)CCCCC(/C=C/c1ccccc1OCCCCCc1ccccc1)Cc1ccc(C(=O)O)cc1 (centres unmarked) [Example 16],IC50,arteria saphena,5 nM
same,"Stimulation (n-fold), + ODQ (10 μM)",Heme-containing sGC; 0.1 μM Ex. 16,27 n-fold
same,"Stimulation (n-fold), + ODQ (10 μM)",Heme-containing sGC; 1.0 μM Ex. 16,52 n-fold
same,"Stimulation (n-fold), + ODQ (10 μM)",Heme-containing sGC; 10 μM Ex. 16,88 n-fold
same,"Stimulation (n-fold), + SNP (0.1 μM)",Heme-containing sGC; 0.1 μM Ex. 16,14 n-fold
same,"Stimulation (n-fold), + SNP (0.1 μM)",Heme-containing sGC; 1.0 μM Ex. 16,33 n-fold
same,"Stimulation (n-fold), + SNP (0.1 μM)",Heme-containing sGC; 10 μM Ex. 16,29 n-fold
same,"Stimulation (n-fold), Basal",Heme-containing sGC; 0.1 μM Ex. 16,4 n-fold
same,"Stimulation (n-fold), Basal",Heme-containing sGC; 1.0 μM Ex. 16,9 n-fold
same,"Stimulation (n-fold), Basal",Heme-containing sGC; 10 μM Ex. 16,19 n-fold
same,"Stimulation (n-fold), + ODQ (10 μM)",Heme-free sGC; 0.1 μM Ex. 16,12 n-fold
same,"Stimulation (n-fold), + ODQ (10 μM)",Heme-free sGC; 1.0 μM Ex. 16,94 n-fold
same,"Stimulation (n-fold), + ODQ (10 μM)",Heme-free sGC; 10 μM Ex. 16,291 n-fold
same,"Stimulation (n-fold), Basal",Heme-free sGC; 0.1 μM Ex. 16,11 n-fold
same,"Stimulation (n-fold), Basal",Heme-free sGC; 1.0 μM Ex. 16,54 n-fold
same,"Stimulation (n-fold), Basal",Heme-free sGC; 10 μM Ex. 16,204 n-fold
O=C(O)CCCCC(/C=C/c1ccccc1OCc1ccccc1Cl)Cc1ccc(C(=O)O)cc1 (centres unmarked) [Example 14],IC50,arteria saphena,8.7 nM
"O=c1onc2cnc3ccccc3n12 [ODQ, 1H-1,2,4-oxadiazole-(4,3a)-quinoxalin-1-one, reference compound]","Stimulation (n-fold), ODQ alone","Heme-containing sGC; ODQ 10 μM, no Ex. 16 (0 μM)",1 n-fold
same,"Stimulation (n-fold), ODQ alone","Heme-free sGC; ODQ 10 μM, no Ex. 16 (0 μM)",1 n-fold
"O=C(O)CCCCC(CCCc1cccc(OCCCCc2ccccc2)c1)Cc1ccc(C(=O)O)cc1 (centres unmarked) [Example 44, 6-(4Carboxybenzyl)-9-(3-(4-phenylbutoxy)phenyl)nonanoic acid]",IC50,arteria saphena,7800 nM

# — patent US6864287B1, “Derivatives of dicarboxylic acid having pharmaceutical properties” (Bayer Aktiengesellschaft, priority 1999, dated 2005)
